In patent publication US20040024024A1, “Aromatic sulfone hydroxamates and their use as protease inhibitors” (priority 2001, published 2004):

Assays:
Human recombinant MMP-13 = target: T1, Human recombinant MMP-13 (Homo sapiens, UniProt P45452); experiment: In vitro MMP inhibition, IC50 determination (fluorogenic substrate I); type: biochemical
T1 construct: made in house; host or cells: baculovirus / insect cells
Description: (§1) Several hydroxamates and salts thereof were analyzed in in vitro assays to determine their ability to inhibit the MMP cleavage of peptide substrates. Inhibition (Ki) and IC50 constants were calculated from the assayed hydroxamate-MMP interactions.
(§2) Human recombinant MMP-1, MMP-2, MMP-9, MMP-13, and MMP-14 were used in this assay. All enzymes were prepared in Assignee's laboratories following usual laboratory procedures. Protocols for the preparation and use of these enzymes are available in the scientific literature. See, e.g., Enzyme Nomenclature (Academic Press, San Diego, Calif., 1992) (and the citations therein). See also, Frije et al., J. Biol. Chem., 26(24), 16766-73 (1994).
The expressed proenzyme was first purified over a heparin agarose column, and then over a chelating zinc chloride column. The proenzyme was then activated by APMA for use in the assay. Further details on baculovirus expression systems may be found in, for example, Luckow et al., J. Virol., 67, 4566-79 (1993). See also, O'Reilly et al, Baculovirus Expression Vectors: A Laboratory Manual (W. H. Freeman and Co., New York, N.Y., 1992). See also, King et al., The Baculovirus Expression System: A Laboratory Guide (Chapman & Hall, London, England, 1992).
(§3) All MMPs were activated using 4-aminophenylmercuric acetate (“APMA”, Sigma Chemical, St. Louis, Mo.) or trypsin. MMP-9 also was activated using human recombinant MMP-3 (purified in Assignee's laboratory following standard cloning and purification techniques).
(§4) Two fluorogenic, methoxycoumarin-containing polypeptide substrates were used in the MMP inhibition assays:
(§5) MCA-ProLeuGlyLeuDpaAlaArgNH2 (I)
(§6) Here, “Dpa” is 3-(2,4-dinitrophenyl)-L-2,3-diaminopropionyl group, and “MCA” is 7-methoxycoumarin-4-yl acetyl. Substrate (I) was purchased from Baychem (Redwood City, Calif.), and substrate II was prepared Assignee's laboratory. Substrate I was used in the IC50 determination assays, while substrate II was used in the Ki determination assays. In the absence of MMP inhibitory activity, either substrate is cleaved at the Gly-Leu peptide bond. This cleavage separates the highly fluorogenic peptide from the 2,4-dinitrophenyl quencher, thus resulting in increase of fluorescent intensity.
(§7) The stock solutions of the assayed hydroxamates (or salts thereof) were prepared in 1% dimethyl sulfoxide (DMSO). These stock solutions were diluted in Buffer A (100 mM Tris-HCl, 100 mM NaCl, 10 mM CaCl2, 0.05% polyoxyethylene 23 lauryl ether, pH 7.5) to obtain solutions with different hydroxamate concentrations, i.e., assay solutions with different concentrations of the assayed MMP inhibitory compound. The experiment controls contained the same amount of Buffer A/DMSO as the assayed sample, but contained no hydroxamate (or salt thereof).
(§8) The assays from which the IC50 determinations were made were performed as follows. The MMPs were activated with either trypsin or APMA (4-aminophenylmercuric acetate, Sigma Chemical, St. Louis, Mo.). The assayed hydroxamate samples were, incubated in Microfluorrm White Plates (Dynatech, Chantilly, VA) and analyzed on a Perkin Elmer L550 plate reader (Norwalk, Conn.). The excitation wavelength was 328 nm, and the emission wavelength—415 nm. All samples (assayed hydroxamates and controls) were incubated in separate plates at room temperature in the presence of 4 μM of MMP substrate (I). As stated in the previous paragraph, samples containing varying concentrations of the same assayed hydroxamate were prepared. Inhibition was measured as a reduction in fluorescent intensity as a function of MMP inhibitor concentration.

Human recombinant MMP-2 = target: T2, Human recombinant MMP-2 (Homo sapiens, UniProt P08253); experiment: as above; type: biochemical
T2 construct: made in house; host or cells: MMP-2-transfected p2AHT2 cells
T2 sequence (P08253 110-660): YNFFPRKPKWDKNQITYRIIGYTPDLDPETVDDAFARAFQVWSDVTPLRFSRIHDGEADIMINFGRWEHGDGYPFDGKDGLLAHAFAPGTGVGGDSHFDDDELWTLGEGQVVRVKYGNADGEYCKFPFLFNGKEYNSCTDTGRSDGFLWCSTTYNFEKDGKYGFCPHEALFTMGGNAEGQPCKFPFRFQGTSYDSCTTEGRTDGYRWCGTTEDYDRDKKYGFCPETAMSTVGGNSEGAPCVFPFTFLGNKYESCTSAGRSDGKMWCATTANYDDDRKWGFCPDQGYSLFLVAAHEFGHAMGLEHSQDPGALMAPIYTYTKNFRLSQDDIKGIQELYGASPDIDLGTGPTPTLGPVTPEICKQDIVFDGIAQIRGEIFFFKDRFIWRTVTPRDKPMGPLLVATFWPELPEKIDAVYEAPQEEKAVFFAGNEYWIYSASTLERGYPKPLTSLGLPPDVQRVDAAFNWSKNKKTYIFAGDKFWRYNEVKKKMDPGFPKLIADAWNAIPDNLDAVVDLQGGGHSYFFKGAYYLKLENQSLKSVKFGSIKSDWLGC
Description: as §1, §2
The MMP-2 proenzyme was purified by gelatin Sepharose chromatography from MMP-2-transfected p2AHT2 cells provided by Dr. Gregory Goldberg of Washington University (St. Louis, Mo.).
as §3, §4, §5, §6, §7, §8

[1] = value outside parentheses (Ki in parenthesis)
[2] = substrate (I) 4 μM, room temperature, values not in parenthesis

CON(C)C(=O)CCCCOc1ccc(S(=O)(=O)C2(C(=O)NO)CCOCC2)cc1 [Example 329]
IC50 (Human recombinant MMP-13; [1]): 8.6 nM | IC50 (Human recombinant MMP-2; [1]): 103 nM

N=C(NCCOc1ccc(S(=O)(=O)C2(C(=O)NO)CCOCC2)cc1)c1ccccc1 [Example 600]
IC50 (Human recombinant MMP-13; value outside parentheses): 214 nM | IC50 (Human recombinant MMP-2; value outside parentheses): 206 nM

CC(C)c1ccc(NC(=O)CCCOc2ccc(S(=O)(=O)C3(C(=O)NO)CCOCC3)cc2)cc1 [Example 227]
IC50 (Human recombinant MMP-13; value outside parenthesis): 0.2 nM | IC50 (Human recombinant MMP-2; value outside parenthesis): 2.7 nM

COc1ccc(S(=O)(=O)NCCOc2ccc(S(=O)(=O)C3(C(=O)NO)CCOCC3)cc2)cc1 [Example 603]
IC50 (Human recombinant MMP-13; value outside parentheses): 2.4 nM | IC50 (Human recombinant MMP-2; value outside parentheses): 34 nM

O=C(NO)C1(S(=O)(=O)c2ccc(OCCCc3cccc(-c4cc(F)cc(F)c4)c3)cc2)CCOCC1 [Example 159]
IC50 (Human recombinant MMP-13; value outside parenthesis): 24.4 nM | IC50 (Human recombinant MMP-2; value outside parenthesis): 1370 nM

O=C(NO)C1(S(=O)(=O)c2ccc(OCc3nc(-c4ccc(OC(F)(F)F)cc4)no3)cc2)CCOCC1 [Example 132]
IC50 (Human recombinant MMP-13; value outside parenthesis): 3.7 nM | IC50 (Human recombinant MMP-2; value outside parenthesis): 61.7 nM

COCCN1CCC(C(=O)NO)(S(=O)(=O)c2ccc(OCCCn3nc(C(F)(F)F)cc3C(F)(F)F)cc2)CC1 [Example 253]
IC50 (Human recombinant MMP-13; value outside parenthesis): 32.4 nM | IC50 (Human recombinant MMP-2; value outside parenthesis): 1450 nM

O=C(CCCOc1ccc(S(=O)(=O)C2(C(=O)NO)CCOCC2)cc1)Nc1cc2ccccc2cc1O [Example 312]
IC50 (Human recombinant MMP-13; [1]): 0.2 nM | IC50 (Human recombinant MMP-2; [1]): 9.1 nM

O=C(NCCCOc1ccc(S(=O)(=O)C2(C(=O)NO)CCOCC2)cc1)c1ccccc1O [Example 372]
IC50 (Human recombinant MMP-13; [1]): 6 nM | IC50 (Human recombinant MMP-2; [1]): 210 nM

NS(=O)(=O)CCCOc1ccc(S(=O)(=O)C2(C(=O)NO)CCOCC2)cc1 [Example 296]
IC50 (Human recombinant MMP-13; [1]): 565 nM | IC50 (Human recombinant MMP-2; [1]): 1340 nM

Cn1cnc(CC(=O)NCCOc2ccc(S(=O)(=O)C3(C(=O)NO)CCOCC3)cc2)c1 [Example 566]
IC50 (Human recombinant MMP-13; value outside parentheses): 18.8 nM | IC50 (Human recombinant MMP-2; value outside parentheses): 65.7 nM

COc1ccc(SCC(C)(C)COc2ccc(S(=O)(=O)C3(C(=O)NO)CCOCC3)cc2)cc1 [Example 430]
IC50 (Human recombinant MMP-13; [1]): 195 nM | IC50 (Human recombinant MMP-2; [1]): 2700 nM

C[C@@H](COc1ccc(S(=O)(=O)C2(C(=O)NO)CCOCC2)cc1)NC(=O)c1ccc(N(C)C)cc1 [Example 395]
IC50 (Human recombinant MMP-13; [1]): 305 nM | IC50 (Human recombinant MMP-2; [1]): 6000 nM

CC(C)Cc1ccc(-c2nnc(CCCOc3ccc(S(=O)(=O)C4(C(=O)NO)CCOCC4)cc3)o2)cc1 [Example 179]
IC50 (Human recombinant MMP-13; value outside parenthesis): 1.1 nM | IC50 (Human recombinant MMP-2; value outside parenthesis): 247 nM

O=C(NO)C1(S(=O)(=O)c2ccc(OCCCc3cccc(N4CCNCC4)c3)cc2)CCN(C2CC2)CC1 [Example 641]
IC50 (Human recombinant MMP-13; value outside parentheses): 5 nM | IC50 (Human recombinant MMP-2; value outside parentheses): 135 nM

COc1ccc(C(=O)NCCNc2ccc(S(=O)(=O)C3(C(=O)NO)CCOCC3)cc2)cc1 [Example 339]
IC50 (Human recombinant MMP-13; [1]): 933 nM | IC50 (Human recombinant MMP-2; [1]): 1210 nM

C[C@H]1C(=O)N(CCCOc2ccc(S(=O)(=O)C3(C(=O)NO)CCOCC3)cc2)C(=O)N1c1ccccc1 [Example 177]
IC50 (Human recombinant MMP-13; value outside parenthesis): 17 nM | IC50 (Human recombinant MMP-2; value outside parenthesis): 333 nM

COCCN1CCC(C(=O)NO)(S(=O)(=O)c2ccc(OCCCn3ccc(-c4ccc(OC)cc4)n3)cc2)CC1 [Example 223]
IC50 (Human recombinant MMP-13; value outside parenthesis): 11.9 nM | IC50 (Human recombinant MMP-2; value outside parenthesis): 69.7 nM

CCOc1ccc(-c2nnc(CCCOc3ccc(S(=O)(=O)C4(C(=O)NO)CCOCC4)cc3)o2)cc1OCC [Example 303]
IC50 (Human recombinant MMP-13; [1]): 9.9 nM | IC50 (Human recombinant MMP-2; [1]): 50 nM

COc1cc2c(cc1OC)CN(CCCCOc1ccc(S(=O)(=O)C3(C(=O)NO)CCOCC3)cc1)CC2 [Example 338]
IC50 (Human recombinant MMP-13; [1]): 138 nM | IC50 (Human recombinant MMP-2; [1]): 20.6 nM

N#Cc1cccc(C(=O)NCCCOc2ccc(S(=O)(=O)C3(C(=O)NO)CCOCC3)cc2)c1 [Example 367]
IC50 (Human recombinant MMP-13; [1]): 4.5 nM | IC50 (Human recombinant MMP-2; [1]): 235 nM

COc1cccc(CC(=O)NCCOc2ccc(S(=O)(=O)C3(C(=O)NO)CCOCC3)cc2)c1 [Example 602]
IC50 (Human recombinant MMP-13; value outside parentheses): 3.6 nM | IC50 (Human recombinant MMP-2; value outside parentheses): 13.7 nM

COc1ccc(SC[C@H](C)COc2ccc(S(=O)(=O)C3(C(=O)NO)CCOCC3)cc2)cc1 [Example 434]
IC50 (Human recombinant MMP-13; [1]): 0.6 nM | IC50 (Human recombinant MMP-2; [1]): 1.1 nM

O=C(NCCCOc1ccc(S(=O)(=O)C2(C(=O)NO)CCOCC2)cc1)C1CCCCC1 [Example 399]
IC50 (Human recombinant MMP-13; [1]): 8 nM | IC50 (Human recombinant MMP-2; [1]): 650 nM

COCCN1CCC(C(=O)NO)(S(=O)(=O)c2ccc(OCCCn3nnc(-c4ccc5c(c4)OCO5)n3)cc2)CC1 [Example 146]
IC50 (Human recombinant MMP-13; value outside parenthesis): 0.4 nM | IC50 (Human recombinant MMP-2; value outside parenthesis): 11.1 nM

COc1ccc(C(=O)NCCCOc2ccc(S(=O)(=O)C3(C(=O)NO)CCOCC3)cc2)cc1 [Example 17, tetrahydro-N-hydroxy-4-[[4-[3-[(4-methoxybenzoyl)amino]propoxy]phenyl]sulfonyl]-2H-pyran-4-carboxamide]
IC50 (Human recombinant MMP-13; [2]): 1.6 nM | IC50 (Human recombinant MMP-2; [2]): 550 nM

O=C(NCCCOc1ccc(S(=O)(=O)C2(C(=O)NO)CCN(C3CC3)CC2)cc1)C1C2CC3CC(C2)CC1C3 (centres unmarked) [Example 643]
IC50 (Human recombinant MMP-13; value outside parentheses): 11.4 nM | IC50 (Human recombinant MMP-2; value outside parentheses): 1130 nM

CCOc1ccc(-c2noc(CCCOc3ccc(S(=O)(=O)C4(C(=O)NO)CCOCC4)cc3)n2)cc1 [Example 275]
IC50 (Human recombinant MMP-13; value outside parenthesis): 1.7 nM | IC50 (Human recombinant MMP-2; value outside parenthesis): 115 nM

CC(C)CCCc1cccc(CCCOc2ccc(S(=O)(=O)C3(C(=O)NO)CCOCC3)cc2)c1 [Example 612]
IC50 (Human recombinant MMP-13; value outside parentheses): 16.1 nM | IC50 (Human recombinant MMP-2; value outside parentheses): 1230 nM

O=C(NO)C1(S(=O)(=O)c2ccc(OCCCc3nc4cc5ccccc5cc4o3)cc2)CCOCC1 [Example 313]
IC50 (Human recombinant MMP-13; [1]): < 0.1 nM | IC50 (Human recombinant MMP-2; [1]): 18.1 nM

O=C(c1cccc(C(F)(F)F)c1)N1CC[C@@H](Oc2ccc(S(=O)(=O)C3(C(=O)NO)CCOCC3)cc2)C1 [Example 424]
IC50 (Human recombinant MMP-13; [1]): 192 nM | IC50 (Human recombinant MMP-2; [1]): 485 nM

COc1ccc(OC)c(-c2nnc(CCCOc3ccc(S(=O)(=O)C4(C(=O)NO)CCOCC4)cc3)o2)c1 [Example 291]
IC50 (Human recombinant MMP-13; [1]): 8 nM | IC50 (Human recombinant MMP-2; [1]): 100 nM

O=C(NO)C1(S(=O)(=O)c2ccc(OCCCS(=O)(=O)N3CCOCC3)cc2)CCOCC1 [Example 315]
IC50 (Human recombinant MMP-13; [1]): 12.7 nM | IC50 (Human recombinant MMP-2; [1]): 12.8 nM

CC(C)c1cccc(CCCOc2ccc(S(=O)(=O)C3(C(=O)NO)CCOCC3)cc2)c1 [Example 94]
IC50 (Human recombinant MMP-13; value outside parenthesis): 3.7 nM | IC50 (Human recombinant MMP-2; value outside parenthesis): 17.8 nM
